Assay results from ChEMBL document CHEMBL6109078, “Pyrylium derivatives as outer membrane permeabilizers against MDR gram-negative bacteria via multi-target mode of action” (Eur J Med Chem, 2025).
pKd: −log10 of the molar value. Activity calls are given as the source filed them. No cut-off for these calls is given here.

How the values were obtained:
Klebsiella pneumoniae [1] = assay: Synergistic antibacterial activity against Klebsiella pneumoniae assessed as inhibition of bacterial growth in presence of aminoglycoside by checkerboard assay; type: functional, organism-based
Acinetobacter baumannii [2] = assay: Synergistic antibacterial activity against multi-drug resistant Acinetobacter baumannii clinical isolate 14 assessed as fractional inhibitory concentration index in presence of gentamycin by checkerboard assay; type: functional
Klebsiella pneumoniae [3] = assay: Antibacterial activity against Klebsiella pneumoniae BAA ATCC 1706 assessed as inhibition of bacterial growth by CLSI protocol based method; type: functional
Escherichia coli [4] = assay: Synergistic antibacterial activity against Escherichia coli ATCC 35218 assessed as fractional inhibitory concentration index in presence of gentamycin by checkerboard assay; type: functional
Cell membrane [5] = assay: Induction of outer membrane damage in Escherichia coli ATCC 25922 assessed as accumulation of membrane-like structures near inner membrane at 12.5 microg/ml incubated for 1 hrs by TEM analysis; settings: dose 12.5 µg/ml
Acinetobacter baumannii [6] = assay: Synergistic antibacterial activity against Acinetobacter baumannii ATCC 19606 assessed as inhibition of bacterial growth by measuring polymyxin B MIC by checkerboard assay; type: functional
[7] = Binding affinity to His-tagged LptA (unknown origin) extracted from Escherichia coli BL21 (DE3) cells assessed as dissociation constant by BLI analysis; parameters: species or system Bacteria
Escherichia coli [8] = assay: Induction of morphological changes in Escherichia coli ATCC 25922 assessed as appearance of filamentous bacterial cells at 6.25 microg/ml incubated for 1 hrs by optical microscopic analysis; type: functional, organism-based; settings: dose 6.25 µg/ml
Acinetobacter baumannii [9] = assay: Antibacterial activity against multi-drug resistant Acinetobacter baumannii clinical isolate 1 assessed as inhibition of bacterial growth by CLSI protocol based method; type: functional
Acinetobacter baumannii [10] = assay: Antibacterial activity against multi-drug resistant Acinetobacter baumannii clinical isolate 51 assessed as inhibition of bacterial growth by CLSI protocol based method; type: functional
Acinetobacter baumannii [11] = assay: Synergistic antibacterial activity against multi-drug resistant Acinetobacter baumannii clinical isolate 1 assessed as fractional inhibitory concentration index in presence of polymyxin B by checkerboard assay; type: functional
Escherichia coli [12] = assay: Antibacterial activity against Escherichia coli ATCC 25922 assessed as inhibition of bacterial growth by CLSI protocol based method; type: functional
[13] = Binding affinity to His-tagged LptC (unknown origin) extracted from Escherichia coli BL21 (DE3) cells assessed as dissociation constant by BLI analysis; parameters: species or system Bacteria
Cell membrane [14] = assay: Induction of outer membrane damage in Escherichia coli ATCC 25922 assessed as local damage at 12.5 microg/ml incubated for 1 hrs by TEM analysis; settings: dose 12.5 µg/ml
Acinetobacter baumannii [15] = assay: Antibacterial activity against multi-drug resistant Acinetobacter baumannii clinical isolate 4 assessed as inhibition of bacterial growth by CLSI protocol based method; type: functional
Acinetobacter baumannii [16] = assay: Synergistic antibacterial activity against multi-drug resistant Acinetobacter baumannii clinical isolate 14 assessed as inhibition of bacterial growth by measuring polymyxin B MIC by checkerboard assay; type: functional
Pseudomonas aeruginosa [17] = assay: Antibacterial activity Pseudomonas aeruginosa ATCC 27853 assessed as inhibition of bacterial growth by CLSI protocol based method; type: functional
Escherichia coli [18] = assay: Synergistic antibacterial activity against multi-drug resistant Escherichia coli clinical isolate 1 assessed as inhibition of bacterial growth by measuring polymyxin B MIC by checkerboard assay; type: functional
Escherichia coli [19] = assay: Induction of morphological changes in Escherichia coli ATCC 25922 assessed as appearance of longer bacterial cells at 6.25 microg/ml incubated for 1 hrs by optical microscopic analysis; type: functional, organism-based; settings: dose 6.25 µg/ml
Acinetobacter baumannii [20] = assay: Synergistic antibacterial activity against multi-drug resistant Acinetobacter baumannii clinical isolate 5 assessed as fractional inhibitory concentration index in presence of amikacin by checkerboard assay; type: functional
Acinetobacter baumannii [21] = assay: Antibacterial activity against Acinetobacter baumannii ATCC 19606 assessed as bacterial killing at 100 microg/ml measured within 4 to 12 hrs by time-kill kinetics analysis; type: functional; settings: dose 100 µg/ml; time 4-12 hrs
Acinetobacter baumannii [22] = assay: Synergistic antibacterial activity against multi-drug resistant Acinetobacter baumannii clinical isolate 43 assessed as fractional inhibitory concentration index in presence of polymyxin B by checkerboard assay; type: functional
Klebsiella pneumoniae [23] = assay: Antibacterial activity against Klebsiella pneumoniae ATCC 700603 assessed as inhibition of bacterial growth by CLSI protocol based method; type: functional
Escherichia coli [24] = assay: Antibacterial activity against Escherichia coli CG-4 expressing MCR-1 and NDM-1 assessed as inhibition of bacterial growth by CLSI protocol based method; type: functional
Acinetobacter baumannii [25] = assay: Synergistic antibacterial activity against multi-drug resistant Acinetobacter baumannii clinical isolate 1 assessed as inhibition of bacterial growth in presence of polymyxin B by checkerboard assay; type: functional
Escherichia coli [26] = assay: Synergistic antibacterial activity against Escherichia coli ATCC 25922 assessed as inhibition of bacterial growth in presence of polymyxin B by checkerboard assay; type: functional
Cell membrane [27] = assay: Disruption of outer membrane integrity in Escherichia coli ATCC 25922 assessed as increase in EtBr uptake by fluorescence plate reader analysis
Cell membrane [28] = assay: Induction of outer membrane damage in Escherichia coli ATCC 25922 assessed as local fractures at 12.5 microg/ml incubated for 1 hrs by TEM analysis; settings: dose 12.5 µg/ml
Escherichia coli [29] = assay: Antibacterial activity against Escherichia coli ATCC 25922 infected in Galleria mellonella larvae assessed as survival rate at 50 microg/ml measured 96 hrs post-inoculation relative to control; type: functional
Klebsiella pneumoniae [30] = assay: Synergistic antibacterial activity against Klebsiella pneumoniae assessed as inhibition of bacterial growth in presence of polymyxin B by checkerboard assay; type: functional, organism-based
Escherichia coli [31] = assay: Antibacterial activity against Escherichia coli ATCC 25922 assessed as inhibition of bacterial growth by measuring fold change in MIC incubated for 16 to 18 hrs in presence of LPS; type: functional; settings: time 16-18 hrs
Escherichia coli [32] = assay: Antibacterial activity against Escherichia coli ATCC 25922 assessed as inhibition of bacterial growth by measuring decrease in bacterial count at 6.25 to 50 microg/ml measured after 12 hrs by time-kill kinetics analysis; type: functional; settings: dose 6.25-50 µg/ml
Cell membrane [33] = assay: Induction of outer membrane damage in Escherichia coli ATCC 25922 assessed as loose outer membrane with decrease in electron cloud density at 12.5 microg/ml incubated for 1 hrs by TEM analysis; settings: dose 12.5 µg/ml
Escherichia coli [34] = assay: Synergistic antibacterial activity against Escherichia coli ATCC 25922 assessed as fractional inhibitory concentration index in presence of gentamycin by checkerboard assay; type: functional
Acinetobacter baumannii [35] = assay: Synergistic antibacterial activity against Acinetobacter baumannii ATCC 19606 assessed as fractional inhibitory concentration index in presence of polymyxin B by checkerboard assay; type: functional
Bacteria = assay: Binding affinity to His-tagged LptA (unknown origin) extracted from Escherichia coli BL21 (DE3) cells by BLI analysis
Acinetobacter baumannii [36] = assay: Antibacterial activity against multi-drug resistant Acinetobacter baumannii clinical isolate 5 assessed as inhibition of bacterial growth by CLSI protocol based method; type: functional
Escherichia coli [37] = assay: Antibacterial activity against Escherichia coli ATCC 25922 assessed as bacterial killing at 100 microg/ml measured within 4 to 12 hrs by time-kill kinetics analysis; type: functional; settings: dose 100 µg/ml; time 4-12 hrs
Escherichia coli [38] = assay: Synergistic antibacterial activity against multi-drug resistant Escherichia coli clinical isolate 1 assessed as fractional inhibitory concentration index in presence of polymyxin B by checkerboard assay; type: functional
Pseudomonas aeruginosa [39] = assay: Synergistic antibacterial activity against Pseudomonas aeruginosa assessed as inhibition of bacterial growth in presence of aminoglycoside by checkerboard assay; type: functional, organism-based

| Structure (SMILES) | Activity (Klebsiella pneumoniae [1]) | fractional inhibitory concentration index (FICI) (Acinetobacter baumannii [2]) | MIC (Klebsiella pneumoniae [3]) [mg/L] | fractional inhibitory concentration index (FICI) (Escherichia coli [4]) | MIC (Acinetobacter baumannii [6]) [mg/L] | MIC (Acinetobacter baumannii [9]) [mg/L] | MIC (Acinetobacter baumannii [10]) [mg/L] | fractional inhibitory concentration index (FICI) (Acinetobacter baumannii [11]) | MIC (Escherichia coli [12]) [mg/L] | MIC (Acinetobacter baumannii [15]) [mg/L] | MIC (Acinetobacter baumannii [16]) [mg/L] | MIC (Pseudomonas aeruginosa [17]) [mg/L] | MIC (Escherichia coli [18]) [mg/L] | fractional inhibitory concentration index (FICI) (Acinetobacter baumannii [20]) | fractional inhibitory concentration index (FICI) (Acinetobacter baumannii [22]) | MIC (Klebsiella pneumoniae [23]) [mg/L] | MIC (Escherichia coli [24]) [mg/L] | MIC (Acinetobacter baumannii [25]) [mg/L] | MIC (Escherichia coli [26]) [mg/L] | Activity (Klebsiella pneumoniae [30]) | further results |
| --- | --- | --- | --- | --- | --- | --- | --- | --- | --- | --- | --- | --- | --- | --- | --- | --- | --- | --- | --- | --- | --- |
| CCN(CC)c1ccc(/C=C/c2cc(C(C)(C)C)[o+]c(C(C)(C)C)c2)cc1.O=S(=O)([O-])C(F)(F)F | inactive | 0.125 | 12.5 | 0.125 | 0.006 | 25 | 12.5 | <0.064 | 6.25 | 12.5 | 0.006 | > 100 | 0.2 | 0.125 | 0.5 | > 100 | 12.5 | 1.56 | 1.56 | inactive | Activity (Cell membrane [5]): Active; pKd [7]: 6.32; Activity (Escherichia coli [8]): Active; pKd [13]: 6.31; Activity (Cell membrane [14]): Active; Activity (Escherichia coli [19]): Active; Activity (Acinetobacter baumannii [21]): 100%; Activity (Cell membrane [27]): Dose-dependent-effect; Activity (Cell membrane [28]): Active; survival at 50 µg/mL (Escherichia coli [29]): 40%; fold change (FC) (Escherichia coli [31]): 2; Activity (Escherichia coli [32]): <6 log10CFU/ml; Activity (Cell membrane [33]): Active; fractional inhibitory concentration index (FICI) (Escherichia coli [34]): 0.125; fractional inhibitory concentration index (FICI) (Acinetobacter baumannii [35]): 0.188; Activity (Bacteria): Dose-dependent-effect; MIC (Acinetobacter baumannii [36]): 12.5 mg/L; Activity (Escherichia coli [37]): 100%; fractional inhibitory concentration index (FICI) (Escherichia coli [38]): 0.031; Activity (Pseudomonas aeruginosa [39]): inactive |
| CN1CCOc2cc(/C=C/c3cc(C(C)(C)C)[o+]c(C(C)(C)C)c3)ccc21.O=S(=O)([O-])C(F)(F)F | inactive | 0.125 | > 100 | 0.125 | 0.006 | 100 | 50 | <0.126 | 50 | 100 | 0.012 | > 100 | 0.2 | 0.125 | <0.25 | > 100 | 25 | 12.5 | 12.5 | inactive | Activity (Escherichia coli [32]): <6 log10CFU/ml; fractional inhibitory concentration index (FICI) (Escherichia coli [34]): 0.125; fractional inhibitory concentration index (FICI) (Acinetobacter baumannii [35]): 0.25; Activity (Bacteria): inactive; MIC (Acinetobacter baumannii [36]): 50 mg/L; fractional inhibitory concentration index (FICI) (Escherichia coli [38]): 0.047; Activity (Pseudomonas aeruginosa [39]): inactive |
| CC(C)(C)c1cc(/C=C/c2ccc(N3CCCC3)cc2)cc(C(C)(C)C)[o+]1.O=S(=O)([O-])C(F)(F)F | inactive | 0.125 | > 100 | 0.125 | 0.002 | 12.5 | 12.5 | <0.266 | 12.5 | 12.5 | 0.024 | > 100 | 0.39 | 0.125 | 0.5 | > 100 | 6.25 | 3.12 | 1.56 | inactive | Activity (Cell membrane [5]): Active; pKd [7]: 4.82; Activity (Escherichia coli [8]): Active; pKd [13]: 4.20; Activity (Cell membrane [14]): Active; Activity (Escherichia coli [19]): Active; Activity (Acinetobacter baumannii [21]): 100%; Activity (Cell membrane [27]): Dose-dependent-effect; Activity (Cell membrane [28]): Active; survival at 50 µg/mL (Escherichia coli [29]): 40%; fold change (FC) (Escherichia coli [31]): 2; Activity (Escherichia coli [32]): <6 log10CFU/ml; Activity (Cell membrane [33]): Active; fractional inhibitory concentration index (FICI) (Escherichia coli [34]): 0.125; fractional inhibitory concentration index (FICI) (Acinetobacter baumannii [35]): 0.156; Activity (Bacteria): Dose-dependent-effect; MIC (Acinetobacter baumannii [36]): 6.25 mg/L; Activity (Escherichia coli [37]): 100%; fractional inhibitory concentration index (FICI) (Escherichia coli [38]): 0.063; Activity (Pseudomonas aeruginosa [39]): inactive |
